Measurements: ChEMBL document CHEMBL2202996, “Synthesis, evaluation, and radiolabeling of new potent positive allosteric modulators of the metabotropic glutamate receptor 2 as potential tracers for positron emission tomography imaging” (J Med Chem, 2012)

Experiments:
[1] = test system: Thalamus; assay: Biodistribution in Wistar rat thalamus at 41 MBq, iv measured at 12 to 28 mins post administration by microPET imaging in presence of JNJ-40068782; type: ADME, organism-based; settings: in vivo
[2] = test system: Hippocampus; assay: Biodistribution in Wistar rat hippocampus at 41 MBq, iv measured at 12 to 28 mins post administration by microPET imaging in presence of JNJ-40068782; type: ADME, organism-based; settings: in vivo
[3] = test system: Cortex; assay: Biodistribution in Wistar rat cortex at 41 MBq, iv measured at 12 to 28 mins post administration by microPET imaging in presence of JNJ-40068782; type: ADME, organism-based; settings: in vivo
[4] = test system: Cerebellum; assay: Biodistribution in Wistar rat cerebellum at 41 MBq, iv measured at 12 to 28 mins post administration by microPET imaging in presence of JNJ-40068782; type: ADME, organism-based; settings: in vivo
[5] = test system: Striatum; assay: Biodistribution in Wistar rat striatum at 41 MBq, iv measured at 12 to 28 mins post administration by microPET imaging in presence of JNJ-40068782; type: ADME, organism-based; settings: in vivo
[6] = test system: Thalamus; assay: Biodistribution in Wistar rat thalamus at 41 MBq, iv measured at 12 to 28 mins post administration by microPET imaging; type: ADME, organism-based; settings: in vivo
[7] = test system: Hippocampus; assay: Biodistribution in Wistar rat hippocampus at 41 MBq, iv measured at 12 to 28 mins post administration by microPET imaging; type: ADME, organism-based; settings: in vivo
[8] = test system: Cortex; assay: Biodistribution in Wistar rat cortex at 41 MBq, iv measured at 12 to 28 mins post administration by microPET imaging; type: ADME, organism-based; settings: in vivo
[9] = test system: Cerebellum; assay: Biodistribution in Wistar rat cerebellum at 41 MBq, iv measured at 12 to 28 mins post administration by microPET imaging; type: ADME, organism-based; settings: in vivo
[10] = test system: Striatum; assay: Biodistribution in Wistar rat striatum at 41 MBq, iv measured at 12 to 28 mins post administration by microPET imaging; type: ADME, organism-based; settings: in vivo
[11] = test system: Brain; assay: Biodistribution in Wistar rat brain at 41 MBq, iv measured at 27 mins post administration by microPET imaging; type: ADME, organism-based; settings: in vivo, 0.45 h
[12] = test system: Brain; assay: Biodistribution in Wistar rat brain at 41 MBq, iv measured at 12 mins post administration by microPET imaging; type: ADME, organism-based; settings: in vivo, 0.2 h
[13] = Metabolic stability in Wistar rat cerebellum assessed as intact tracer at 74 MBq, iv measured at 30 mins post administration by gamma counting; type: ADME, organism-based; settings: read-out: Stability
[14] = Metabolic stability in Wistar rat cerebrum assessed as intact tracer at 74 MBq, iv measured at 30 mins post administration by gamma counting; type: ADME, organism-based; settings: read-out: Stability
[15] = Metabolic stability in Wistar rat plasma assessed as intact tracer at 74 MBq, iv measured at 30 mins post administration by gamma counting; type: ADME, organism-based; settings: read-out: Stability
[16] = test system: Rattus norvegicus; assay: Biodistribution in Wistar rat urinary system at 22 Mbq, iv measured at 60 mins post administration by gamma counting; type: ADME, organism-based, Urine; settings: in vivo, 1 h
[17] = test system: Liver; assay: Biodistribution in Wistar rat liver at 22 Mbq, iv measured at 60 mins post administration by gamma counting; type: ADME, organism-based; settings: in vivo, 1 h
[18] = test system: Intestine; assay: Biodistribution in Wistar rat intestine at 22 Mbq, iv measured at 60 mins post administration by gamma counting; type: ADME, organism-based; settings: in vivo, 1 h
[19] = test system: Blood; assay: Biodistribution in Wistar rat blood at 22 Mbq, iv measured at 60 mins post administration by gamma counting; type: ADME, organism-based; settings: in vivo, 1 h
[20] = test system: Brain; assay: Ratio of SUV in total brain in iv dosed Wistar at 2 mins post administration by gamma counting to SUV in total brain in iv dosed Wistar at 30 mins post administration by gamma counting; type: ADME, organism-based; settings: rat, in vivo
[21] = test system: Blood; assay: Biodistribution in Wistar rat blood at 22 Mbq, iv measured at 2 mins post administration by gamma counting; type: ADME, organism-based; settings: in vivo
[22] = test system: Cerebellum; assay: Ratio of SUV in cerebellum in iv dosed Wistar at 2 mins post administration by gamma counting to SUV in cerebellum in iv dosed Wistar at 30 mins post administration by gamma counting; type: ADME, organism-based; settings: rat, in vivo
[23] = test system: Cerebrum; assay: Ratio of SUV in cerebrum in iv dosed Wistar at 2 mins post administration by gamma counting to SUV in cerebrum in iv dosed Wistar at 30 mins post administration by gamma counting; type: ADME, organism-based; settings: rat, in vivo
[24] = test system: Cortex; assay: Ratio of SUV in cortex in iv dosed Wistar at 2 mins post administration by gamma counting to SUV in cortex in iv dosed Wistar at 30 mins post administration by gamma counting; type: ADME, organism-based; settings: rat, in vivo
[25] = test system: Hippocampus; assay: Ratio of SUV in hippocampus in iv dosed Wistar at 2 mins post administration by gamma counting to SUV in hippocampus in iv dosed Wistar at 30 mins post administration by gamma counting; type: ADME, organism-based; settings: rat, in vivo
[26] = test system: Striatum; assay: Ratio of SUV in striatum in iv dosed Wistar at 2 mins post administration by gamma counting to SUV in striatum in iv dosed Wistar at 30 mins post administration by gamma counting; type: ADME, organism-based; settings: rat, in vivo
[27] = test system: Brain; assay: Biodistribution in iv dosed Wistar rat total brain measured at 60 mins post administration by gamma counting; type: ADME, organism-based; settings: in vivo, 1 h
[28] = test system: Blood; assay: Biodistribution in iv dosed Wistar rat blood measured at 60 mins post administration by gamma counting; type: ADME, organism-based; settings: in vivo, 1 h
[29] = test system: Cerebellum; assay: Biodistribution in iv dosed Wistar rat cerebellum measured at 60 mins post administration by gamma counting; type: ADME, organism-based; settings: in vivo, 1 h
[30] = test system: Cortex; assay: Biodistribution in iv dosed Wistar rat cortex measured at 60 mins post administration by gamma counting; type: ADME, organism-based; settings: in vivo, 1 h
[31] = test system: Cerebrum; assay: Biodistribution in iv dosed Wistar rat cerebrum measured at 60 mins post administration by gamma counting; type: ADME, organism-based; settings: in vivo, 1 h
[32] = test system: Hippocampus; assay: Biodistribution in iv dosed Wistar rat hippocampus measured at 60 mins post administration by gamma counting; type: ADME, organism-based; settings: in vivo, 1 h
[33] = test system: Blood; assay: Biodistribution in iv dosed Wistar rat blood measured at 30 mins post administration by gamma counting; type: ADME, organism-based; settings: in vivo, 0.5 h
[34] = test system: Striatum; assay: Biodistribution in iv dosed Wistar rat striatum measured at 60 mins post administration by gamma counting; type: ADME, organism-based; settings: in vivo, 1 h
[35] = test system: Brain; assay: Biodistribution in iv dosed Wistar rat total brain measured at 30 mins post administration by gamma counting; type: ADME, organism-based; settings: in vivo, 0.5 h
[36] = test system: Cerebrum; assay: Biodistribution in iv dosed Wistar rat cerebrum measured at 30 mins post administration by gamma counting; type: ADME, organism-based; settings: in vivo, 0.5 h
[37] = test system: Cerebellum; assay: Biodistribution in iv dosed Wistar rat cerebellum measured at 30 mins post administration by gamma counting; type: ADME, organism-based; settings: in vivo, 0.5 h
[38] = test system: Cortex; assay: Biodistribution in iv dosed Wistar rat cortex measured at 30 mins post administration by gamma counting; type: ADME, organism-based; settings: in vivo, 0.5 h
[39] = test system: Hippocampus; assay: Biodistribution in iv dosed Wistar rat hippocampus measured at 30 mins post administration by gamma counting; type: ADME, organism-based; settings: in vivo, 0.5 h
[40] = test system: Blood; assay: Biodistribution in iv dosed Wistar rat blood measured at 2 mins post administration by gamma counting; type: ADME, organism-based; settings: in vivo
[41] = test system: Striatum; assay: Biodistribution in iv dosed Wistar rat striatum measured at 30 mins post administration by gamma counting; type: ADME, organism-based; settings: in vivo, 0.5 h
[42] = test system: Cerebellum; assay: Biodistribution in iv dosed Wistar rat cerebellum measured at 2 mins post administration by gamma counting; type: ADME, organism-based; settings: in vivo
[43] = test system: Brain; assay: Biodistribution in iv dosed Wistar rat total brain measured at 2 mins post administration by gamma counting; type: ADME, organism-based; settings: in vivo
[44] = test system: Cerebrum; assay: Biodistribution in iv dosed Wistar rat cerebrum measured at 2 mins post administration by gamma counting; type: ADME, organism-based; settings: in vivo
[45] = test system: Hippocampus; assay: Biodistribution in iv dosed Wistar rat hippocampus measured at 2 mins post administration by gamma counting; type: ADME, organism-based; settings: in vivo
[46] = test system: Cortex; assay: Biodistribution in iv dosed Wistar rat cortex measured at 2 mins post administration by gamma counting; type: ADME, organism-based; settings: in vivo
[47] = test system: Striatum; assay: Biodistribution in iv dosed Wistar rat striatum measured at 2 mins post administration by gamma counting; type: ADME, organism-based; settings: in vivo
[48] = test system: Cerebellum; assay: Biodistribution in Wistar rat cerebellum at 22 Mbq, iv measured at 2 mins post administration by gamma counting; type: ADME, organism-based; settings: in vivo
[49] = test system: Cerebrum; assay: Biodistribution in Wistar rat cerebrum at 22 Mbq, iv measured at 2 mins post administration by gamma counting; type: ADME, organism-based; settings: in vivo
[50] = test system: Brain; assay: Biodistribution in Wistar rat brain at 22 Mbq, iv measured at 2 mins post administration by gamma counting; type: ADME, organism-based; settings: in vivo

## [11CH3]Oc1c(F)ccc(F)c1C1CCN(c2ccn3c(CC4CC4)nnc3c2Cl)CC1
[1]
  Drug uptake: Not Active
[2]
  Drug uptake: Not Active
[3]
  Drug uptake: Not Active
[4]
  Drug uptake: Not Active
[5]
  Drug uptake: Not Active
[6]
  Drug uptake: Active
[7]
  Drug uptake: Active
[8]
  Drug uptake: Active
[9]
  Drug uptake: Active
[10]
  Drug uptake: Active
[11]
  SUV: 1.7
[12]
  SUV: 1.7
[13]
  remaining at 0.5 h: 95.5%
[14]
  remaining at 0.5 h: 90.3%
[15]
  remaining at 0.5 h: 69.7%
[16]
  Drug uptake: 2.4 %ID
[17]
  Drug uptake: 35.7%
[18]
  Drug uptake: 35.7%
[19]
  Drug uptake: 2 %ID
[20]
  Ratio: 0.65
[21]
  Drug uptake: 4.3 %ID
[22]
  Ratio: 0.61
[23]
  Ratio: 0.67
[24]
  Ratio: 0.82
[25]
  Ratio: 0.6
[26]
  Ratio: 0.57
[27]
  SUV: 1.18
[28]
  SUV: 0.28
[29]
  SUV: 1.75
[30]
  SUV: 1.28
[31]
  SUV: 1.11
[32]
  SUV: 0.73
[33]
  SUV: 0.39
[34]
  SUV: 1.72
[35]
  SUV: 2.13
[36]
  SUV: 1.96
[37]
  SUV: 2.62
[38]
  SUV: 1.77
[39]
  SUV: 1.49
[40]
  SUV: 0.61
[41]
  SUV: 2.14
[42]
  SUV: 1.59
[43]
  SUV: 1.39
[44]
  SUV: 1.32
[45]
  SUV: 0.9
[46]
  SUV: 1.46
[47]
  SUV: 1.22
[48]
  Drug uptake: 0.17 %ID
[49]
  Drug uptake: 0.69 %ID
[50]
  Drug uptake: 0.88 %ID
